In paper PMC7481290, “Halogenation as a tool to tune antimicrobial activity of peptoids” (Scientific Reports, 2020):
In brackets after ≈: the same amount, converted by molar mass. Non-standard residues stand in square brackets, D forms with d. Residues, ends and D or L forms follow the SMILES beside them. Gly(Nα-4-Cl-benzyl) = O=C(O)CNCc1ccc(Cl)cc1; N(4-Br-benzyl)Gly = O=C(O)CNCc1ccc(Br)cc1; N(4-F-Bzl)Gly = O=C(O)CNCc1ccc(F)cc1; NBzl(4-I)Gly = O=C(O)CNCc1ccc(I)cc1; Nphe = O=C(O)CNCc1ccccc1; Nlys = NCCCCNCC(=O)O

Experiments:
[1] = tested on: Methicillin-resistant S. epidermidis ET-024; format: cell-based, Staphylococcus epidermidis; details: Methicillin-resistant ET-024, 18 h
Procedure: (§1) Bacterial growth inhibition was determined by using broth microdilution according to the Clinical Laboratory Standards Institute[43]. The antibacterial activity of peptoids was tested against S. aureus ATCC 25923, ATCC29213, and methicillin resistant S. aureus USA 300, methicillin resistant S. epidermidis ATCC 51625, a biofilm producing methicillin resistant S. epidermidis ET-024[44], P. aeruginosa Pa01 (H103), and E. coli ATCC 25922. Bacteria, grown on agar plates for 18 h at 37 °C, were diluted to ∼1 × 10^8 CFU/mL in Mueller‐Hinton Broth II (MHB II). Twofold serial dilutions of peptoids in MHB II were inoculated with bacteria to achieve a final concentration of 5 × 10^5 CFU/mL in polypropylene 96 U‐well microtiter plates (Corning 3,897; ThermoFisher Scientific, Roskilde), followed by incubation at 37 °C in ambient air for 18 h. The MIC values were determined as the lowest concentration showing no visible bacterial growth. Experiments were performed twice (in technical triplicates) on 2 different days.

[2] = tested on: Methicillin-resistant S. epidermidis ATCC 51625; format: cell-based, Staphylococcus epidermidis; details: ATCC 51625, 18 h
Procedure: as §1

E. coli ATCC 25922 = format: cell-based, Escherichia coli; details: ATCC 25922, 18 h
Procedure: as §1

[3] = tested on: P. aeruginosa PA01 (H103); format: cell-based, Pseudomonas aeruginosa; details: H103, 18 h
Procedure: as §1

S. aureus ATCC 29213 = format: cell-based, Staphylococcus aureus; details: ATCC 29213, 18 h
Procedure: as §1

[4] = tested on: Methicillin-resistant S. aureus USA 300; format: cell-based, Staphylococcus aureus; details: USA 300, 18 h
Procedure: as §1

S. aureus ATCC 25923 = format: cell-based, Staphylococcus aureus; details: ATCC 25923, 18 h
Procedure: as §1

| SMILES | Minimal inhibitory concentration MRSE^d [1] | Minimal inhibitory concentration MRSE^e [2] | Minimal inhibitory concentration EC^f (E. coli ATCC 25922) | Minimal inhibitory concentration PA^g [3] | Minimal inhibitory concentration SA^b (S. aureus ATCC 29213) | Minimal inhibitory concentration MRSA^c [4] | Minimal inhibitory concentration SA^a (S. aureus ATCC 25923) |
| --- | --- | --- | --- | --- | --- | --- | --- |
| NCCCCNCC(=O)N(CC(=O)N(CCCCN)CC(=O)N(CC(=O)N(CCCCN)CC(=O)N(CC(=O)N(CCCCN)CC(=O)N(CC(N)=O)Cc1ccc(F)cc1)Cc1ccccc1)Cc1ccc(F)cc1)Cc1ccccc1 [Compound 15] (H-[Nlys][Nphe][Nlys][N(4-F-Bzl)Gly][Nlys][Nphe][Nlys][N(4-F-Bzl)Gly]-NH2) | 128 mg/L (≈ 111 µM) | 128 mg/L (≈ 111 µM) | 512 mg/L (≈ 444 µM) | 512 mg/L (≈ 444 µM) | > 512 mg/L | > 512 mg/L | > 512 mg/L |
| NCCCCNCC(=O)N(CC(=O)N(CCCCN)CC(=O)N(CC(=O)N(CCCCN)CC(=O)N(CC(=O)N(CCCCN)CC(=O)N(CC(N)=O)Cc1ccc(Cl)cc1)Cc1ccccc1)Cc1ccc(Cl)cc1)Cc1ccccc1 [Compound 16] (H-[Nlys][Nphe][Nlys][Gly(Nα-4-Cl-benzyl)][Nlys][Nphe][Nlys][Gly(Nα-4-Cl-benzyl)]-NH2) | 8 mg/L (≈ 6.74 µM) | 8 mg/L (≈ 6.74 µM) | 256 mg/L (≈ 216 µM) | 512 mg/L (≈ 431 µM) | 64 mg/L (≈ 53.9 µM) | 16 mg/L (≈ 13.5 µM) | 16 mg/L (≈ 13.5 µM) |
| NCCCCNCC(=O)N(CC(=O)N(CCCCN)CC(=O)N(CC(=O)N(CCCCN)CC(=O)N(CC(=O)N(CCCCN)CC(=O)N(CC(N)=O)Cc1ccc(Br)cc1)Cc1ccccc1)Cc1ccc(Br)cc1)Cc1ccccc1 [Compound 17] (H-[Nlys][Nphe][Nlys][N(4-Br-benzyl)Gly][Nlys][Nphe][Nlys][N(4-Br-benzyl)Gly]-NH2) | 4 mg/L (≈ 3.13 µM) | 4 mg/L (≈ 3.13 µM) | 256 mg/L (≈ 201 µM) | 512 mg/L (≈ 401 µM) | 32 mg/L (≈ 25.1 µM) | 32 mg/L (≈ 25.1 µM) | 16 mg/L (≈ 12.5 µM) |
| NCCCCNCC(=O)N(CC(=O)N(CCCCN)CC(=O)N(CC(=O)N(CCCCN)CC(=O)N(CC(=O)N(CCCCN)CC(=O)N(CC(N)=O)Cc1ccc(I)cc1)Cc1ccccc1)Cc1ccc(I)cc1)Cc1ccccc1 [Compound 18] (H-[Nlys][Nphe][Nlys][NBzl(4-I)Gly][Nlys][Nphe][Nlys][NBzl(4-I)Gly]-NH2) | 8 mg/L (≈ 5.84 µM) | 4 mg/L (≈ 2.92 µM) | 256 mg/L (≈ 187 µM) | > 512 mg/L | 32 mg/L (≈ 23.4 µM) | 16 mg/L (≈ 11.7 µM) | 32 mg/L (≈ 23.4 µM) |
| NCCCCNCC(=O)N(CC(=O)N(CCCCN)CC(=O)N(CC(=O)N(CCCCN)CC(=O)N(CC(=O)N(CCCCN)CC(=O)N(CC(=O)N(CCCCN)CC(=O)N(CC(=O)N(CCCCN)CC(=O)N(CC(N)=O)Cc1ccc(F)cc1)Cc1ccc(F)cc1)Cc1ccc(F)cc1)Cc1ccc(F)cc1)Cc1ccc(F)cc1)Cc1ccc(F)cc1 [Compound 29] (H-[Nlys][N(4-F-Bzl)Gly][Nlys][N(4-F-Bzl)Gly][Nlys][N(4-F-Bzl)Gly][Nlys][N(4-F-Bzl)Gly][Nlys][N(4-F-Bzl)Gly][Nlys][N(4-F-Bzl)Gly]-NH2) | 4 to 8 mg/L | 4 mg/L (≈ 2.25 µM) | 256 mg/L (≈ 144 µM) | 64 mg/L (≈ 36 µM) | 32 mg/L (≈ 18 µM) | 16 mg/L (≈ 9 µM) | 32 mg/L (≈ 18 µM) |
| NCCCCNCC(=O)N(CC(=O)N(CCCCN)CC(=O)N(CC(=O)N(CCCCN)CC(=O)N(CC(=O)N(CCCCN)CC(=O)N(CC(=O)N(CCCCN)CC(=O)N(CC(=O)N(CCCCN)CC(=O)N(CC(N)=O)Cc1ccc(Cl)cc1)Cc1ccc(Cl)cc1)Cc1ccc(Cl)cc1)Cc1ccc(Cl)cc1)Cc1ccc(Cl)cc1)Cc1ccc(Cl)cc1 [Compound 30] (H-[Nlys][Gly(Nα-4-Cl-benzyl)][Nlys][Gly(Nα-4-Cl-benzyl)][Nlys][Gly(Nα-4-Cl-benzyl)][Nlys][Gly(Nα-4-Cl-benzyl)][Nlys][Gly(Nα-4-Cl-benzyl)][Nlys][Gly(Nα-4-Cl-benzyl)]-NH2) | 2 mg/L (≈ 1.07 µM) | 1 mg/L (≈ 0.533 µM) | 64 mg/L (≈ 34.1 µM) | > 512 mg/L | 2 mg/L (≈ 1.07 µM) | 2 mg/L (≈ 1.07 µM) | 2 mg/L (≈ 1.07 µM) |
| NCCCCNCC(=O)N(CC(=O)N(CCCCN)CC(=O)N(CC(=O)N(CCCCN)CC(=O)N(CC(=O)N(CCCCN)CC(=O)N(CC(=O)N(CCCCN)CC(=O)N(CC(=O)N(CCCCN)CC(=O)N(CC(N)=O)Cc1ccc(Br)cc1)Cc1ccc(Br)cc1)Cc1ccc(Br)cc1)Cc1ccc(Br)cc1)Cc1ccc(Br)cc1)Cc1ccc(Br)cc1 [Compound 31] (H-[Nlys][N(4-Br-benzyl)Gly][Nlys][N(4-Br-benzyl)Gly][Nlys][N(4-Br-benzyl)Gly][Nlys][N(4-Br-benzyl)Gly][Nlys][N(4-Br-benzyl)Gly][Nlys][N(4-Br-benzyl)Gly]-NH2) | 4 mg/L (≈ 1.87 µM) | 4 mg/L (≈ 1.87 µM) | 64 mg/L (≈ 29.9 µM) | 256 mg/L (≈ 119 µM) | 8 mg/L (≈ 3.73 µM) | 2 mg/L (≈ 0.933 µM) | 4 mg/L (≈ 1.87 µM) |
| NCCCCNCC(=O)N(CC(=O)N(CCCCN)CC(=O)N(CC(=O)N(CCCCN)CC(=O)N(CC(=O)N(CCCCN)CC(=O)N(CC(=O)N(CCCCN)CC(=O)N(CC(=O)N(CCCCN)CC(=O)N(CC(N)=O)Cc1ccc(F)cc1)Cc1ccccc1)Cc1ccc(F)cc1)Cc1ccccc1)Cc1ccc(F)cc1)Cc1ccccc1 [Compound 33] (H-[Nlys][Nphe][Nlys][N(4-F-Bzl)Gly][Nlys][Nphe][Nlys][N(4-F-Bzl)Gly][Nlys][Nphe][Nlys][N(4-F-Bzl)Gly]-NH2) | 16 mg/L (≈ 9.29 µM) | 4 mg/L (≈ 2.32 µM) | 256 mg/L (≈ 149 µM) | 256 mg/L (≈ 149 µM) | 256 mg/L (≈ 149 µM) | 128 mg/L (≈ 74.3 µM) | 256 mg/L (≈ 149 µM) |
| NCCCCNCC(=O)N(CC(=O)N(CCCCN)CC(=O)N(CC(=O)N(CCCCN)CC(=O)N(CC(=O)N(CCCCN)CC(=O)N(CC(=O)N(CCCCN)CC(=O)N(CC(=O)N(CCCCN)CC(=O)N(CC(N)=O)Cc1ccc(Cl)cc1)Cc1ccccc1)Cc1ccc(Cl)cc1)Cc1ccccc1)Cc1ccc(Cl)cc1)Cc1ccccc1 [Compound 34] (H-[Nlys][Nphe][Nlys][Gly(Nα-4-Cl-benzyl)][Nlys][Nphe][Nlys][Gly(Nα-4-Cl-benzyl)][Nlys][Nphe][Nlys][Gly(Nα-4-Cl-benzyl)]-NH2) | 4 mg/L (≈ 2.26 µM) | 1 mg/L (≈ 0.564 µM) | 256 mg/L (≈ 144 µM) | > 512 mg/L | 8 mg/L (≈ 4.51 µM) | 8 mg/L (≈ 4.51 µM) | 16 mg/L (≈ 9.03 µM) |
| NCCCCNCC(=O)N(CC(=O)N(CCCCN)CC(=O)N(CC(=O)N(CCCCN)CC(=O)N(CC(=O)N(CCCCN)CC(=O)N(CC(=O)N(CCCCN)CC(=O)N(CC(=O)N(CCCCN)CC(=O)N(CC(N)=O)Cc1ccc(Br)cc1)Cc1ccccc1)Cc1ccc(Br)cc1)Cc1ccccc1)Cc1ccc(Br)cc1)Cc1ccccc1 [Compound 35] (H-[Nlys][Nphe][Nlys][N(4-Br-benzyl)Gly][Nlys][Nphe][Nlys][N(4-Br-benzyl)Gly][Nlys][Nphe][Nlys][N(4-Br-benzyl)Gly]-NH2) | 8 mg/L (≈ 4.2 µM) | 1 mg/L (≈ 0.525 µM) | 256 mg/L (≈ 134 µM) | > 512 mg/L | 8 mg/L (≈ 4.2 µM) | 8 mg/L (≈ 4.2 µM) | 8 mg/L (≈ 4.2 µM) |
